Test results published in PubChem BioAssay AID179 (DTP/NCI, 2004).
Values joined by “and” are separate entries in the source; they are usually repeats but may differ in a detail not shown here. Equal entries are not always repeated. Active and inactive are the calls of the source.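 Rule for the calls: active = compounds giving half or more protection of infected cells from virus-caused growth loss, again on retest; inactive = the rest.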 Where a SMILES comes first, the peptide text is derived from it. Bridges are numbered along the chain shown (N, C = ends).

System: CEM cells HIV-1 protection, formazan growth assay
Test: NCI AIDS Antiviral Assay
Details: for IC50: measured here: growth of uninfected CEM cells
How it was run: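 Human CEM cells, uninfected and HIV-1-infected, exposed to five drug concentrations; growth measured by soluble formazan assay and scored as percent protection from infection, with protecting compounds retested.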

Row | SMILES | EC50 | IC50 | outcome
1 | COC(=O)C(=O)C(C(=O)C(=O)Nc1cc([N+](=O)[O-])ccc1[N+](=O)[O-])c1nc2ccc(C(=O)c3ccccc3)cc2[nH]c1=O (centres undefined) | > 158 µM | 83.2 µM | 
2 | O=C(NNc1nc2ccccc2n2cccc12)Nc1ccc(Br)cn1 | > 200 µM | 46.8 µM | 
3 | CCN(CC)CCO/N=C1\CC[C@H]2[C@@H]3CC=C4C[C@@H](O)CC[C@]4(C)[C@H]3CC[C@]12C | > 200 µM | 15.5 µM | 
4 | CCOC(=O)C1CSSCC(N)C(=O)N1 (stereo not drawn) (H-Cys-Cys-OEt; disulfide 1-2; configuration not given here) | > 200 µM | > 200 µM | 
5 | COc1ccc(/C=C(\C#N)c2ccc(OC)c(OC)c2)cc1 | > 2 µM | 0.257 µM | 
6 | Cc1cccc(Nc2ccccc2C(=O)O)c1C | > 200 µM | 129 µM | 
7 | [N-]=N[N+]#I1OC(C(F)(F)F)(C(F)(F)F)c2ccccc21 |  |  | inactive
8 | CC(CN(C)C)OC(=O)c1cc2ccccc2n1Cc1ccccc1 (centres undefined) | > 200 µM | 87.1 µM | 
9 | Fc1cccc(F)c1C1SCc2nc3cc4ccccc4cc3n21 (centres undefined) | > 200 µM | 24.5 µM | 
10 | COc1ccc(C(=C[N+](=O)[O-])c2ccc(OC)cc2)cc1 |  |  | inactive
11 | COc1ccc(O)c2c(=O)c3cc(O)ccc3oc12 | > 200 µM | 30.2 µM | 
12 | COc1cccc2c1C(=O)c1c(O)c3c(c(O)c1C2=O)C[C@@](O)(C(C)=O)CC3OC1CC(N=[N+]=[N-])C(OC)C(C)O1 (some centres undefined) |  |  | inactive
13 | CCOP(=S)(OCC)Oc1ccc2c(c1)OC(=O)C1(Cl)C2(C)C2(Cl)C(=O)Oc3cc(OP(=S)(OCC)OCC)ccc3C12C (centres undefined) | > 18.6 µM | > 18.6 µM | 
14 | COC(=O)c1cccc2cccc(C(=O)N(C)CCN(C)C)c12 | > 708 µM | > 708 µM | 
15 | CC[CH2][Pb]([CH2]CC)([CH2]CC)[NH]S(=O)(=O)c1ccc(C)cc1 | > 2 µM | 0.166 µM | 
16 | CCC1CN2CCc3cc(OC)c(OC)cc3C2CC1CC1c2cc(OC)c(OC)cc2CCN1C(=O)C1CCCN1 (centres undefined) |  |  | inactive
17 | O=C(O)Cc1cc(=O)[nH]c2c1C(=O)CCC2 |  |  | inactive
18 | CN(CCO)CC(O)Cn1cnc2c1c(=O)n(C)c(=O)n2C (centres undefined) (tested in a mixture with another compound) | > 200 µM | > 200 µM | 
19 | O=c1/c(=C/c2ccccc2O)sc2nc3ccccc3n12 | > 17.8 µM | > 17.8 µM | 
20 | c1ccc(N=C(N2CCCC2)N(CCN2CCCC2)c2ccccc2)cc1 | > 200 µM | 9.33 µM | 
21 | O=C(Nc1ccccc1C(F)(F)F)OCCN1CCNC1=S | > 200 µM | > 200 µM | 

Row | SMILES | EC50 | IC50 | outcome
22 | COc1cc(CNC2c3cc4c(cc3C(c3cc(OC)c(OC)c(OC)c3)[C@H]3C(=O)OCC23)OCO4)cc(OC)c1OC (some centres undefined) |  |  | inactive
23 | COC1/C=C/OC2(C)Oc3c(C)c(O)c4c(O)c(c(/C=N/N=C(\N)N[N+](=O)[O-])c(O)c4c3C2=O)NC(=O)C(C)=C/C=C/C(C)C(O)C(C)C(O)C(C)C(OC(C)=O)C1C (centres undefined) |  |  | inactive
24 | Nc1nc(SSc2nc(N)nc3c2ncn3C2OC(CO)C(O)C2O)c2ncn(C3OC(CO)C(O)C3O)c2n1 (centres undefined) | > 20 µM | 0.339 µM | 
25 | CC(CCC(=O)O)[C@H]1CCC2[C@@H]3CC[C@@H]4CC(O)CC[C@]4(C)C3CC[C@@]21C (some centres undefined) | > 200 µM | > 100 µM | 
26 | O=C(NCCCCN1CCCCCC1)C1c2ccccc2-c2ccccc21 | > 200 µM | 91.2 µM | 
27 | CCCC(Cc1ccccc1)N1CCCC1 (centres undefined) | > 200 µM | > 200 µM | 
28 | CCOC(=O)C(CC#Cc1ccc(C#CCC(NC(C)=O)C(=O)OCC)cc1)NC(C)=O (centres undefined) | > 200 µM | > 200 µM | 
29 | O=c1c2ccccc2nc(-c2ccccc2)n1NC(=S)Nc1ccccc1 | > 135 µM | 112 µM | 
30 | COC12C[C@H]3CCC([C@H](C)c4ccc5c(c41)CC1[C@H]5C[C@@H](O)C4C[C@@H](O)CC[C@@]41C)N2C3 (some centres undefined) | > 40.7 µM | > 40.7 µM | 
31 | O=C(/C=C/c1cccc([N+](=O)[O-])c1)c1ccccc1 | > 20.4 µM | 11.5 µM | 
32 | COc1cc(Oc2nc3c(N)cc(C(F)(F)F)cc3nc2-c2ccccc2)cc(OC)c1OC | > 20 µM | 14.1 µM | 
33 | Cc1cc(NC(=O)c2ccc(N)cc2)ccc1N=Nc1ccc2c(O)c(N=Nc3ccc(S(=O)(=O)O)cc3C)c(S(=O)(=O)O)cc2c1 | 34.7 µM | > 200 µM | 
34 | O/N=C1/C(=C/c2ccccc2)CCCC1C(NO)c1ccccc1 (centres undefined) | > 81.3 µM | > 81.3 µM | 
35 | CN1CN(c2ccccc2)C2(CCN(CCCN(C)c3ccc(F)cc3)CC2)C1=O | > 200 µM | 35.5 µM | 
36 | COC(=O)n1c(=O)n(-c2ccccc2)c(=O)n1C(=O)Nc1ccccc1 | > 200 µM | 195 µM | 
37 | CCN(CC)Cc1nc(C2CCC([N+](=O)[O-])O2)no1 (centres undefined) | > 200 µM | 72.4 µM | 
38 | Cc1ccc(C)n1-n1c(Cc2ccc(Cl)cc2)n[nH]c1=O | > 200 µM | 50.1 µM | 
39 | CCCc1cc(=O)oc2c3c(c4c(c12)OC(C)(C)[C@@H](O)[C@@H]4O)O[C@@H](C)[C@H](C)[C@@H]3O | > 200 µM | 89.1 µM | 
40 | CCCCCCCCOCC(CO)OCCCCCCCC (centres undefined) | > 251 µM | 132 µM | 
41 | CCc1n[nH]c(=O)n1-c1ccncc1 | > 200 µM | > 200 µM | 
42 | CC1(C)O[C@@H](CCl)C[C@@H](C#N)O1 |  |  | inactive

Row | SMILES | EC50 | IC50 | outcome
43 | Cn1c(-c2cccs2)cc(-c2cccs2)c1-c1ccco1 | > 200 µM | 30.2 µM | 
44 | CCN(CC)c1ccc(N=C2C=C(Cl)C(=O)c3ncccc32)c(C)c1 |  |  | inactive
45 | CC(C)=CCC[C@@H](C)c1c(O)c(O)c(C)c2nc3ccccc3nc12 | > 200 µM | 5.89 µM | 
46 | COC(=O)c1[nH]c(=S)[nH]c(=O)c1-c1ccc(Cl)cc1 | 251 µM | 603 µM | 
47 | CC1=C(C(=O)Nc2cc(=O)n(C)c(=O)n2C)C(c2cccc([N+](=O)[O-])c2)C(C(=O)Nc2cc(=O)n(C)c(=O)n2C)=C(C)N1 | > 31.6 µM | > 31.6 µM | 
48 | Cc1cccc(-n2c(N)c(-c3nc4ccccc4[nH]3)sc2=S)c1 | > 5.89 µM | > 5.89 µM | 
49 | COC1Cc2c(C)c(OC(C)=O)c3cccnc3c2O1 (centres undefined) | > 200 µM | 22.4 µM | 
50 | Cc1cc(S(=O)(=O)Nc2n[nH]c(N)n2)c(Cl)cc1Cl | > 200 µM | > 200 µM | 
51 | C=C[C@]1(O[Si](C)(C)C)C[C@@]2(C(=O)OCC)C(O)C(=O)N3CCc4cc(OC)c(OC)cc4[C@]312 (some centres undefined) | > 200 µM | > 200 µM | 
52 | O=C(O)CSC(=S)N1CCCC1 | > 200 µM | 102 µM | 
53 | COc1ccc(/C=C/C(=O)c2ccccc2)cc1OC | > 97.7 µM | 18.2 µM | 
54 | COc1ccc(C2Oc3c(cccc3OC)C=C2[N+](=O)[O-])cc1OC (centres undefined) | > 200 µM | 1.2 µM | 
55 | CC1=NN2C(=O)C(C)SC2=NC(C)(C)C1 (centres undefined) | > 1120 µM | > 1120 µM | 
56 | CSc1nnnc2ccccc12 | > 200 µM | 145 µM | 
57 | O=C(CC1=NC2NN(c3ccccc3)C(=O)C2=C1CC(=O)c1cccc([N+](=O)[O-])c1)c1cccc([N+](=O)[O-])c1 (centres undefined) | > 129 µM | > 129 µM | 
58 | O=C(O)c1c2c(cc3c1CC1(Cc4ccccc4C1)C3)CCC2 | > 200 µM | 45.7 µM | 
59 | N#CC(C#N)=Cc1ccc2c(c1)OC(Cl)O2 (centres undefined) |  |  | inactive
60 | O=C(Nc1ccc(N=C(Nc2ccccc2)c2ccccc2)cc1)c1ccc(C(=O)Nc2ccc(N=C(Nc3ccccc3)c3ccccc3)cc2)cc1 | > 200 µM | 18.2 µM | 
61 | CCCCCC1C2C(=O)NC(=O)C1C(=O)NC2=O (centres undefined) | > 1000 µM | > 1000 µM | 
62 | CN1CCC(CNC(=O)CCCCCCCCC(=O)NCC2(c3ccccc3)CCN(C)CC2)(c2ccccc2)CC1 | 97.7 µM and > 100 µM | > 100 µM | 
63 | CC(=O)OC1(C#N)CC2OC1C1C2N=NN1C(=O)OC(C)(C)C (centres undefined) | > 209 µM | 28.8 µM | 

Row | SMILES | EC50 | IC50 | outcome
64 | Cn1c2ccccc2[n+]2c(N)scc12 | > 200 µM | 39.8 µM | 
65 | CCOC(=O)/C=C\SCCC(=O)OC | > 1150 µM | 741 µM | 
66 | CC(=O)ONC(C(=O)C(C)(C)C)C(=O)C(C)(C)C | > 200 µM | > 200 µM | 
67 | O=C(CCC(=O)Nc1cccc(Cl)c1)CC(=O)c1ccc(F)cc1 |  |  | inactive
68 | Cc1ncc2c(=O)c3c(oc2n1)c1ccccc1n3Cc1ccccc1 | > 200 µM | > 200 µM | 
69 | O=c1[nH]cnc2c1ncn2C1CCC(CO)O1 (centres undefined) | 6.03 µM | 50.1 µM | 
70 | CC(C)[Si]1(C(C)C)OCC2OC(n3ccc(=O)[nH]c3=O)C(O)(CO)C2O[Si](C(C)C)(C(C)C)O1 (centres undefined) | > 200 µM | 20.9 µM | 
71 | Fc1nc(F)nc(-c2c3ccccc3c3n2CCS3)n1 | > 25.1 µM | > 25.1 µM | 
72 | NC(=O)C(F)(F)C(N)=O | > 200 µM | > 200 µM | 
73 | COc1ccc(SCc2ccc(C(=O)O)cc2[N+](=O)[O-])cc1 | > 295 µM | 162 µM | 
74 | COc1cc(N)c2[nH]c3c(C)ccc(C)c3c2c1 | > 30.2 µM | > 30.2 µM | 
75 | C=Cc1c(Cl)nc(C)c(C)c1-c1ccc(OC)c(OC)c1OCc1ccccc1 | > 200 µM | 25.1 µM | 
76 | O=c1c2ccccc2oc2c(Cl)cc(Cl)cc12 | > 490 µM | 263 µM | 
77 | O=C(CNc1ccc(Cl)cc1)Nn1c(-c2ccccc2)nc2ccccc2c1=O | > 200 µM | 5.13 µM | 
78 | COc1ccc2c(c1)[n+]([O-])c(S(=O)(=O)c1ccc(C)cc1)c(N)[n+]2[O-] |  |  | inactive
79 | CC1=C(/C=C/C(C)=C/C=C/C(C)=C/C=C/C=C(C)/C=C/C=C(C)/C=C/C=C(C)/C=C/C=C(\C)C(=O)O)C(C)(C)CCC1 | > 4.79 µM | > 4.79 µM | 
80 | Fc1cccc(C2SCc3nc4ccccc4n32)c1F (centres undefined) |  |  | inactive
81 | CC(C)CCCC(C)[C@H]1CC[C@H]2[C@@H]3CC[C@H]4C[C@@H](CCC=C(c5cc(Cl)c(OCc6ccccc6B6OC(C)(C)C(C)(C)O6)c(C(=O)OCc6ccccc6B6OC(C)(C)C(C)(C)O6)c5)c5cc(Cl)c(OCc6ccccc6B6OC(C)(C)C(C)(C)O6)c(C(=O)OCc6ccccc6B6OC(C)(C)C(C)(C)O6)c5)CC[C@]4(C)[C@H]3CC[C@]12C (some centres undefined) | > 126 µM | > 126 µM | 
